Laboratory results: US20080280920A1, “Plasminogen Activator Inhibitor-1 Inhibitors” (priority 2005, published 2008)

Legend:
Type in all cases: cell-based, human
MALME-3M = assay: NCI anticancer screen, MALME-3M; conditions: Melanoma, 48 h; for GI50 / CC50: Homo sapiens; for CC50: read-out: LC50 (the source's name)
RPMI-8226 = assay: NCI anticancer screen, RPMI-8226; conditions: RPMI-8226, Leukemia, 48 h
HOP-62 = assay: NCI anticancer screen, HOP-62; conditions: HOP-62, Non-Small Cell Lung, 48 h
CCRF-CEM = assay: NCI anticancer screen, CCRF-CEM; conditions: Leukemia, 48 h
[1] = Homo sapiens, read-out: LC50 (the source's name)

SMILES | GI50 (MALME-3M) [µM] | CC50 (MALME-3M) [µM] | TGI (MALME-3M) [µM] | GI50 (RPMI-8226; Homo sapiens) [µM] | GI50 (HOP-62; Homo sapiens) [µM] | GI50 (CCRF-CEM; Homo sapiens) [µM] | CC50 (RPMI-8226; [1]) [µM] | TGI (RPMI-8226) [µM] | TGI (HOP-62) [µM] | LC50 (HOP-62; Homo sapiens) [µM] | CC50 (CCRF-CEM; [1]) [µM] | TGI (CCRF-CEM) [µM]
COc1cc(CNCC2CCN(C(=O)OC(C)(C)C)CC2)cc(CN2CCN(c3ccccn3)CC2)c1O [Compound Q012132, 2-Methoxy-4-({[(N-t-butyloxycarbonylpiperidin-4-yl)methyl]amino}methyl)-6-[(4-pyridin-2-ylpiperazin-1-yl)methyl]phenol] | 15.7 | 65.5 | 32.0 | – | – | – | – | – | – | – | – | –
COc1cc(CNc2ccc(C(=O)OC(C)(C)C)cc2)cc(CN2CCN(c3ccccn3)CC2)c1O [Compound Q012145T] | 34.6 | – | – | – | – | – | – | – | – | – | – | –
CC(C)(C)OC(=O)Nc1ccc(O)c(C(=O)NCCOC(=O)NCCNC(=O)c2cc(OCc3ccccc3)ccc2OCc2ccccc2)c1 [Compound Q012052, 2-[5-(BOC-amino)-2-hydroxybenzoylamino]ethyl 2-[2,5-bis-(benzyl-oxy)benzoylamino]ethylcarbamate] | > 100 | – | – | 7.58 | > 100 | > 100 | – | – | – | – | – | –
CCOC(=O)[C@H](Cc1ccccc1)NCc1cc(CN2CCN(c3ccccn3)CC2)c(O)c(OC)c1 [Compound Q012147T] | 99.9 | – | – | – | – | – | – | – | – | – | – | –
CCOC(=O)c1ccc(CNCc2cc(CN3CCN(c4ccccn4)CC3)c(O)c(OC)c2)cc1 [Compound Q012135T] | 20.1 | 74.1 | 38.6 | 7.14 | 20.6 | 14.1 | 7.14 | 24.5 | 43.9 | 93.8 | 14.1 | 48.4
